Source: patent US8039495B2, “Biphenyl carboxylic acids and bioisosteres as glycogen synthase activators” (Hoffman-La Roche Inc., priority 2009, dated 2011)

System: glycogen synthase
Test: Glycogen Synthase (GS) Assay
Format: biochemical
Conditions: for EC50: compound concentration needed to give 50% maximum activation; for GS SC200: compound concentration needed to stimulate 200% of the enzyme activity
Experimental: Twelve μL per well of substrate solution containing glycogen (4.32 mg/ml), 2.67 mM UDP-glucose, 21.6 mM phospho(enol)pyruvate and 2.7 mM NADH in 30 mM glycylglycine, pH 7.3 buffer was added into a polystyrene 384-well assay plate (BD Biosciences).
Compound solutions (8 μL/well) at various concentrations (0-300 μM) were added to the assay plate (columns 5-24). Compound solution contains 30 mM glycylglycine, pH 7.3, 40 mM KCl, 20 mM MgCl2, 9.2% DMSO, with (columns 15-24) or without (columns 5-14) 20 mM glucose 6-phosphate.
Enzyme solution (12 μL/well) containing glycogen synthase (16.88 μg/ml), pyruvate kinase (0.27 mg/ml), lactate dehydrogenase (0.27 mg/ml) in 50 mM Tris-HCl, pH 8.0, 27 mM DTT and bovine serum albumin (BSA, 0.2 mg/ml) was added to the assay plate (columns 3-24). As a blank control, enzyme solution without glycogen synthase was added into the top half wells of columns 1-2. To the bottom half wells of columns 1-2 were added a known activator, glucose 6-phosphate (at final concentration 5 mM) in addition to the enzyme solution. The reaction mixture was incubated at room temperature. The assay plate was then read for absorbance at 340 nm on an Envision reader every 3 minutes up to a total of 15 minutes.
The enzyme activity (with or without compound) was calculated by the reaction rate and represented by the optical density change (δOD) per minute. Percent stimulation of glycogen synthase activity by a compound at various concentrations was calculated by the following formula: % stimulation=100*Rs/Rt,
Where Rs is the reaction rate of the enzyme in the presence of compound and Rt is the reaction rate of the enzyme in the absence of compound.
SC200 is defined as the compound concentration that is needed to stimulate 200% of the enzyme activity. EC50 is defined as the compound concentration that is needed to give 50% maximum activation.

Structure (SMILES) | EC50 [nM] | GS SC200 [µM]
O=C(O)[C@@H]1CCCN1C(=O)c1cccc(COc2ccc(-c3ccc(F)cc3F)cc2)c1 [Example 1, (S)-1-[3-(2′,4′-Difluoro-biphenyl-4-yloxymethyl)-benzoyl]-pyrrolidine-2-carboxylic acid] | 120 | 0.02
COc1cc(F)c(F)cc1-c1ccc(OCc2cccc(C(=O)N3CCC[C@H]3C(=O)O)c2)cc1 [Example 2, (S)-1-[3-(4′,5′-Difluoro-2′-methoxy-biphenyl-4-yloxymethyl)-benzoyl]-pyrrolidine-2-carboxylic acid] | 140 | 0.02
Cc1cc(F)c(F)cc1-c1ccc(OCc2cccc(C(=O)N3CCC[C@H]3C(=O)O)c2)cc1 [Example 3, (S)-1-[3-(4′,5′-Difluoro-2′-methyl-biphenyl-4-yloxymethyl)-benzoyl]-pyrrolidine-2-carboxylic acid] | 40 | 0.001
Cc1cc(F)c(F)cc1-c1ccc(OCc2cccc(C(=O)N(C)CC(=O)O)c2)cc1 [Example 4, {[3-(4′,5′-Difluoro-2′-methyl-biphenyl-4-yloxymethyl)-benzoyl]-methyl-amino}-acetic acid] | 80 | 0.01
CN(CC(=O)NS(C)(=O)=O)C(=O)c1cccc(COc2ccc(-c3cc(F)c(F)cc3F)cc2)c1 [Example 5, N-(2-Methanesulfonylamino-2-oxo-ethyl)-N-methyl-3-(2′,4′,5′-trifluoro-biphenyl-4-yloxymethyl)-benzamide] | 200 | 0.07
O=C(c1cccc(COc2ccc(-c3cc(F)c(F)cc3F)cc2)c1)N1CCC[C@H]1c1nnn[nH]1 [Example 6, [(S)-2-(1H-Tetrazol-5-yl)-pyrrolidin-1-yl]-[3-(2′,4′,5′-trifluoro-biphenyl-4-yloxymethyl)-phenyl]-methanone] | 2100 | 0.59
COc1cc(F)c(F)cc1-c1ccc(OCc2cccc(C(=O)N(C)CC(=O)O)c2)cc1 [Example 7, {[3-(4′,5′-Difluoro-2′-methoxy-biphenyl-4-yloxymethyl)-benzoyl]-methyl-amino}-acetic acid] | 100 | 0.02
COc1cc(F)c(F)cc1-c1ccc(OCc2cccc(C(=O)N(CC(=O)O)C(C)(C)C)c2)cc1 [Example 8, {tert-Butyl-[3-(4′,5′-difluoro-2′-methoxy-biphenyl-4-yloxymethyl)-benzoyl]-amino}-acetic acid] | 200 | 0.01
COc1cc(F)c(F)cc1-c1ccc(OCc2nc(C(=O)N(CC(=O)O)C(C)(C)C)cs2)cc1 [Example 9, {tert-Butyl-[2-(4′,5′-difluoro-2′-methoxy-biphenyl-4-yloxymethyl)-thiazole-4-carbonyl]-amino}-acetic acid] | 110 | 0.01
CN(CC(=O)O)C(=O)c1cccc(COc2ccc(-c3cc(F)c(F)cc3F)cc2)c1 [Example 10, {Methyl-[3-(2′,4′,5′-trifluoro-biphenyl-4-yloxymethyl)-benzoyl]-amino}-acetic acid] | 100 | 0.04
COc1cc(F)c(F)cc1-c1ccc(OCc2cccc(C(=O)N(C)CC(=O)O)c2)cc1F [Example 11, {Methyl-[3-(2,4′,5′-trifluoro-2′-methoxy-biphenyl-4-yloxymethyl)-benzoyl]-amino}-acetic acid] | 160 | 0.01
O=C(NS(=O)(=O)C1CC1)c1cccc(COc2ccc(-c3cc(F)c(F)cc3F)cc2)c1 [Example 12, Cyclopropanesulfonic acid 3-(2′,4′,5′-trifluoro-biphenyl-4-yloxymethyl)-benzoylamide] | 690 | 0.14
COc1cc(F)c(F)cc1-c1ccc(OCc2cc(C(=O)N(C)CC(=O)O)ccc2F)cc1 [Example 13, {[3-(4′,5′-Difluoro-2′-methoxy-biphenyl-4-yloxymethyl)-4-fluoro-benzoyl]-methyl-amino}-acetic acid] | 80 | 0.004
CN(CC(=O)O)C(=O)c1cccc(COc2ccc(-c3cc(F)c(F)cc3F)cc2F)c1 [Example 14] | 100 | 0.01
COc1cc(F)c(F)cc1-c1ccc(OCc2cccc(C(=O)N3CCC[C@@H]3C(=O)O)c2)cc1 [Example 15, (R)-1-[3-(4′,5′-Difluoro-2′-methoxy-biphenyl-4-yloxymethyl)-benzoyl]-pyrrolidine-2-carboxylic acid] | 220 | 0.05
